Experimental data: patent US20240400560A1, “BICYCLIC HETEROCYCLIC DERIVATIVE HAVING VIRAL GROWTH INHIBITORY ACTIVITY AND PHARMACEUTICAL COMPOSITION CONTAINING SAME” (Shionogi & Co., Ltd., priority 2021, published 2024)

Experiments:
[1] = system: SARS-CoV-2; assay: Inhibitory activity of cytopathic effect (CPE) in Vero E6/TMPRSS2 cells; type: cell-based
[2] = target: SARS-CoV-2 3CL protease (Severe acute respiratory syndrome coronavirus 2, UniProt P0DTD1); assay: Inhibitory activity test against SARS-CoV-2 3CL proteases; type: biochemical; settings: read-out: IC50 (50% SARS-CoV-2 3CL protease inhibitory concentration)
[3] = Severe acute respiratory syndrome coronavirus 2, VeroE6/TMPRSS2, 50% SARS-CoV-2 infected cell death inhibitory concentration, class symbols
[4] = Severe acute respiratory syndrome coronavirus 2, VeroE6/TMPRSS2, 72 h, 50% SARS-CoV-2 infected cell death inhibitory concentration, CellTiter-Glo 2.0 after 3 days culture

Cc1cncc(-n2c(=O)c3c(Cl)cc(-c4cc5cn[nH]c5cc4Cl)cc3n(Cc3ccc(F)c(C#N)c3)c2=O)c1 [Compound I-0011]
EC50 [1, 3]: < 1000 nM | IC50 [2]: < 100 nM

Cc1cncc(-n2c(=O)c3c(Cl)cc(-c4cc(C#N)ccc4Cl)cc3n(Cc3ccc(F)c(C#N)c3)c2=O)c1 [Compound I-0013]
EC50 [1, 3]: < 1000 nM | IC50 [2]: < 100 nM

Cn1cnc(Cn2c(=O)c3c(Cl)cc(-c4cc5cn[nH]c5cc4Cl)cc3n(Cc3cc(F)c(F)c(F)c3)c2=O)n1 [Compound I-0015]
EC50 [1, 3]: < 1000 nM | IC50 [2]: < 100 nM

COc1cc(-c2cc(C#N)ccc2Cl)cc2c1c(=O)n(-c1cncc(C)c1)c(=O)n2Cc1ccc(F)c(C#N)c1 [Compound I-0027]
EC50 [1, 3]: < 1000 nM | IC50 [2]: < 100 nM

COc1cc(-c2cc3c(cc2Cl)NC(=O)C3)cc2c1c(=O)n(-c1cncc(Cl)c1)c(=O)n2Cc1ccc(F)c(C#N)c1 [Compound I-0028]
EC50 [1, 4]: 10100 nM | IC50 [2]: 7.5 nM

COc1cc(-c2cc(C(N)=O)ccc2Cl)cc2c1c(=O)n(-c1cncc(C)c1)c(=O)n2Cc1ccc(F)c(C#N)c1 [Compound I-0029]
EC50 [1, 4]: 49800 nM | IC50 [2]: 7.8 nM

COc1cc(-c2cc(CO)ccc2Cl)cc2c1c(=O)n(-c1cncc(C)c1)c(=O)n2Cc1ccc(F)c(C#N)c1 [Compound I-0031]
EC50 [1, 3]: < 1000 nM | IC50 [2]: < 100 nM

COc1cc(-c2cc(C#N)ccc2Cl)cc2c1c(=O)n(-c1cncc(Cl)c1)c(=O)n2Cc1ccc(F)c(C#N)c1 [Compound I-0033]
EC50 [1, 4]: 217 nM | IC50 [2]: 13 nM

COc1cc(-c2cc(C(N)=O)ccc2Cl)cc2c1c(=O)n(Cc1ncn(C)n1)c(=O)n2Cc1cc(F)c(F)c(F)c1 [Compound I-0034]
EC50 [1, 3]: 1000 to 10000 nM | IC50 [2]: < 100 nM

COc1cc(-c2cc(C#N)ccc2Cl)cc2c1c(=O)n(Cc1ncn(C)n1)c(=O)n2Cc1cc(F)c(F)c(F)c1 [Compound I-0035]
EC50 [1, 4]: 363 nM | IC50 [2]: 25 nM

COc1cc(-c2cc(CO)ccc2Cl)cc2c1c(=O)n(Cc1ncn(C)n1)c(=O)n2Cc1cc(F)c(F)c(F)c1 [Compound I-0036]
EC50 [1, 3]: 1000 to 10000 nM | IC50 [2]: < 100 nM

COc1cc(-c2cc3c(cc2Cl)NC(=O)C3)cc2c1c(=O)n(Cc1ncn(C)n1)c(=O)n2Cc1cc(F)c(F)c(F)c1F [Compound I-0047]
EC50 [1, 3]: 1000 to 10000 nM | IC50 [2]: < 100 nM

COc1cc(-c2cc3cn[nH]c3cc2Cl)cc2c1c(=O)n(Cc1ncn(C)n1)c(=O)n2Cc1cc(F)c(F)c(F)c1F [Compound I-0048]
EC50 [1, 4]: 537 nM | IC50 [2]: 11 nM

Cc1cncc(-n2c(=O)c3c(F)cc(-c4cc(C#N)ccc4Cl)cc3n(Cc3cc(F)c(F)c(F)c3)c2=O)c1 [Compound I-0049]
EC50 [1, 3]: < 1000 nM | IC50 [2]: < 100 nM

Cc1cncc(-n2c(=O)c3c(F)cc(-c4cc(C(N)=O)ccc4Cl)cc3n(Cc3ccc(F)c(C#N)c3)c2=O)c1 [Compound I-0051]
EC50 [1, 3]: 1000 to 10000 nM | IC50 [2]: < 100 nM

Cc1cncc(-n2c(=O)c3c(F)cc(-c4cc(CO)ccc4Cl)cc3n(Cc3cc(F)c(F)c(F)c3)c2=O)c1 [Compound I-0052]
EC50 [1, 3]: < 1000 nM | IC50 [2]: < 100 nM

COc1cc(-c2cc(C#N)ccc2Cl)cc2c1c(=O)n(Cc1ncn(C)n1)c(=O)n2Cc1cc(F)c(F)c(F)c1F [Compound I-0053]
EC50 [1, 4]: 497 nM | IC50 [2]: 30 nM

Cc1cncc(-n2c(=O)c3c(F)cc(-c4cc(CO)ccc4Cl)cc3n(Cc3ccc(F)c(C#N)c3)c2=O)c1 [Compound I-0054]
EC50 [1, 3]: < 1000 nM | IC50 [2]: < 100 nM

Cc1cncc(-n2c(=O)c3c(F)cc(-c4cc(C(N)=O)ccc4Cl)cc3n(Cc3cc(F)c(F)cc3F)c2=O)c1 [Compound I-0055]
EC50 [1, 3]: < 1000 nM | IC50 [2]: < 100 nM

COc1cc(-c2cc3c(cc2Cl)NC(=O)C3)cc2c1c(=O)n(-c1cncc(C)c1)c(=O)n2Cc1cc(F)c(F)c(F)c1 [Compound I-0058]
EC50 [1, 4]: 194 nM | IC50 [2]: 1.5 nM

COc1cc(-c2cc3c(cc2Cl)NC(=O)C3)cc2c1c(=O)n(-c1cncc(C)c1)c(=O)n2Cc1cc(Cl)c(F)cn1 [Compound I-0059]
EC50 [1, 4]: 335 nM | IC50 [2]: 2 nM

COc1cc(-c2cc3cn[nH]c3cc2Cl)cc2c1c(=O)n(-c1cncc(C)c1)c(=O)n2Cc1ccc(F)c(C#N)c1 [Compound I-0063]
EC50 [1, 3]: < 1000 nM | IC50 [2]: < 100 nM

COc1cc(-c2cc3c(cc2Cl)NC(=O)C3)cc2c1c(=O)n(-c1cncc(Cl)c1)c(=O)n2Cc1cc(F)c(F)c(F)c1 [Compound I-0065]
EC50 [1, 3]: < 1000 nM | IC50 [2]: < 100 nM

COc1cc(-c2cc(S(N)(=O)=O)ccc2Cl)cc2c1c(=O)n(-c1cncc(C)c1)c(=O)n2Cc1ccc(F)c(C#N)c1 [Compound I-0066]
EC50 [1, 4]: 11100 nM | IC50 [2]: 5 nM

COc1cc(-c2cc(C(N)=O)ccc2Cl)cc2c1c(=O)n(-c1cncc(C)c1)c(=O)n2Cc1cc(F)c(F)c(F)c1 [Compound I-0067]
EC50 [1, 3]: < 1000 nM | IC50 [2]: < 100 nM

COc1cc(-c2cc(NS(C)(=O)=O)ccc2Cl)cc2c1c(=O)n(-c1cncc(C)c1)c(=O)n2Cc1ccc(F)c(C#N)c1 [Compound I-0072]
EC50 [1, 4]: 2430 nM | IC50 [2]: 10 nM

Cc1cncc(-n2c(=O)c3c(F)cc(-c4cc(C(N)=O)ccc4Cl)cc3n(Cc3cc(F)c(F)c(F)c3)c2=O)c1 [Compound I-0073]
EC50 [1, 3]: < 1000 nM | IC50 [2]: < 100 nM

COc1cc(-c2cc(-c3cnn(C)c3)ccc2Cl)cc2c1c(=O)n(-c1cncc(C)c1)c(=O)n2Cc1ccc(F)c(C#N)c1 [Compound I-0074]
EC50 [1, 4]: 1830 nM | IC50 [2]: 12 nM

COCc1ccc(Cl)c(-c2cc(OC)c3c(=O)n(-c4cncc(C)c4)c(=O)n(Cc4ccc(F)c(C#N)c4)c3c2)c1 [Compound I-0076]
EC50 [1, 4]: 489 nM | IC50 [2]: 20 nM

COc1cc(-c2cc(C(C)=O)ccc2Cl)cc2c1c(=O)n(Cc1ncn(C)n1)c(=O)n2Cc1cc(F)c(F)c(F)c1 [Compound I-0116]
EC50 [1, 4]: 1750 nM | IC50 [2]: 12 nM

COc1cc(-c2cc3c(cc2Cl)NC(=O)C3)cc2c1c(=O)n(Cc1ncn(C)n1)c(=O)n2Cc1cc(F)c(F)c(F)c1 [Compound I-0139]
EC50 [1, 4]: 3620 nM | IC50 [2]: 4.5 nM

COc1cc(-c2cc3c(cc2Cl)NC(=O)C3)cc2c1c(=O)n(-c1cncc(C)c1)c(=O)n2Cc1cc(C#N)c(F)cc1C [Compound I-0160]
EC50 [1, 4]: 670 nM | IC50 [2]: 0.73 nM

COc1cc(-c2cc3cn[nH]c3cc2Cl)cc2c1c(=O)n(-c1cncc(C)c1)c(=O)n2Cc1cc(C#N)c(F)cc1C [Compound I-0163]
EC50 [1, 4]: 273 nM | IC50 [2]: 1.1 nM

COc1cc(-c2cc(C#N)ccc2Cl)cc2c1c(=O)n(-c1cncc(C)c1)c(=O)n2Cc1cc(C#N)c(F)cc1C [Compound I-0164]
EC50 [1, 4]: 80 nM | IC50 [2]: 1.2 nM

COc1cc(-c2cc3cn[nH]c3cc2Cl)cc2c1c(=O)n(-c1cncc(C)c1)c(=O)n2Cc1cc(F)c(F)c(C#N)c1 [Compound I-0166]
EC50 [1, 3]: < 1000 nM | IC50 [2]: < 100 nM

COc1cc(-c2cc3c(cc2Cl)NC(=O)C3)cc2c1c(=O)n(-c1cncc(C)c1)c(=O)n2Cc1cc(C#N)ccc1Cl [Compound I-0167]
EC50 [1, 4]: 528 nM | IC50 [2]: 1.9 nM

COc1cc(-c2cc(C#N)ccc2Cl)cc2c1c(=O)n(-c1cncc(C)c1)c(=O)n2Cc1cc(C#N)ccc1Cl [Compound I-0168]
EC50 [1, 3]: < 1000 nM | IC50 [2]: < 100 nM

COc1cc(-c2cc3cn[nH]c3cc2Cl)cc2c1c(=O)n(-c1cncc(C)c1)c(=O)n2Cc1cc(C#N)ccc1Cl [Compound I-0170]
EC50 [1, 3]: < 1000 nM | IC50 [2]: < 100 nM

COc1cc(-c2cc(C(=O)NCCN(C)C)ccc2Cl)cc2c1c(=O)n(-c1cncc(C)c1)c(=O)n2Cc1ccc(F)c(C#N)c1 [Compound I-0190]
EC50 [1, 3]: 1000 to 10000 nM | IC50 [2]: < 100 nM

COc1cc(-c2cc(C(=O)NCCO)ccc2Cl)cc2c1c(=O)n(-c1cncc(C)c1)c(=O)n2Cc1ccc(F)c(C#N)c1 [Compound I-0194]
EC50 [1, 3]: 1000 to 10000 nM | IC50 [2]: < 100 nM

COCCNC(=O)c1ccc(Cl)c(-c2cc(OC)c3c(=O)n(-c4cncc(C)c4)c(=O)n(Cc4ccc(F)c(C#N)c4)c3c2)c1 [Compound I-0195]
EC50 [1, 3]: 1000 to 10000 nM | IC50 [2]: < 100 nM

COc1cc(-c2cc(C(=O)N(C)C)ccc2Cl)cc2c1c(=O)n(-c1cncc(C)c1)c(=O)n2Cc1ccc(F)c(C#N)c1 [Compound I-0200]
EC50 [1, 3]: 1000 to 10000 nM | IC50 [2]: < 100 nM

COc1cc(-c2cc(C(=O)N3CCN(C)CC3)ccc2Cl)cc2c1c(=O)n(-c1cncc(C)c1)c(=O)n2Cc1ccc(F)c(C#N)c1 [Compound I-0208]
EC50 [1, 3]: 1000 to 10000 nM | IC50 [2]: < 100 nM

COc1cc(-c2cc3c(cc2Cl)NC(=O)C3)cc2c1c(=O)n(Cc1ncn(C)n1)c(=O)n2Cc1cc(F)c(F)c(Cl)c1 [Compound I-0263]
EC50 [1, 4]: 736 nM | IC50 [2]: 0.99 nM

COc1cc(-c2cc3cn[nH]c3cc2Cl)cc2c1c(=O)n(Cc1ncn(C)n1)c(=O)n2Cc1cc(F)c(F)c(Cl)c1 [Compound I-0264]
EC50 [1, 4]: 349 nM | IC50 [2]: 2.6 nM
